From US8946234B2, “Halogen-substituted compounds” (Bayer CropScience AG, priority 2008, dated 2015)

Assay: physchem
Type: physicochemical
Settings: not given
Experimental: ^a) Note regarding the determination of the log P values and mass detection: The log P values given were determined in accordance with EEC Directive 79/831 Annex V.A8 by HPLC (High Performance Liquid Chromatography) on a phase inversion column (C18). Agilent 1100 LC system; 50*4.6 Zorbax Eclipse Plus C18 1.8 micron; eluent A: acetonitrile (0.1% formic acid); eluent B: water (0.09% formic acid); linear gradient from 10% acetonitrile to 95% acetonitrile in 4.25 min, then 95% acetonitrile for a further 1.25 min; oven temperature 55° C.; flow: 2.0 ml/min. The mass detection is carried out via an Agilend MSD system.

Row | SMILES | logP
1 | Cc1nc(C(F)(F)F)ncc1C(=O)Nc1ccc(Cl)c(C(=O)NCC(F)(F)F)c1 [Ib-20] | 2.65^a)
2 | Cn1nc(C(F)(F)C(F)(F)F)c(C(F)(F)F)c1C(=O)Nc1cc(F)c(F)c(C(=O)NCc2ccccc2)c1 [Ik-97] | 4.19^a)
3 | Cc1nc(C(F)(F)C(F)(F)F)nc(C)c1C(=O)Nc1ccc(Cl)c(C(=O)NCc2ccccc2)c1 [Ib-14] | 3.49^a)
4 | Cn1nc(OCC(F)(F)F)cc1C(=O)Nc1ccc(Cl)c(C(=O)NC2CC2)c1 [Ik-247] | 2.55^a)
5 | Cn1nc(C(F)(F)C(F)(F)F)c(C(F)(F)F)c1C(=O)Nc1cc(Br)c(I)c(C(=O)NC2CC2)c1 [Ik-210] | 3.92^a)
6 | CC(C)NC(=O)c1cc(NC(=O)c2c(C(F)(F)F)c(C(F)(F)C(F)(F)F)nn2C)ccc1Cl [Ik-90] | 3.60^a)
7 | CC(NC(=O)c1cc(NC(=O)c2c(Br)c(C(F)(F)F)nn2C)ccc1Cl)C(F)(F)F (stereo not shown) [Ik-158] | 3.40^a)
8 | Cn1nc(C(F)(F)C(F)(F)F)c(C(F)(F)F)c1C(=O)Nc1cc(F)c(F)c(C(=O)NC2CC2)c1F [Ik-169] | 3.53^a)
9 | O=C(NCc1ccccc1)c1cc(NC(=O)c2cnc(C(F)(F)C(F)(F)F)nc2C(F)(F)C(F)(F)F)ccc1Cl [Ib-35] | 4.20^a)
10 | Cn1nc(C(F)(F)C(F)(F)F)c(C(F)(F)F)c1C(=O)Nc1cc(Br)cc(C(=O)NCC(F)(F)F)c1 [Ik-223] | 4.09^a)
11 | Cn1nc(-c2ccc(F)cc2)c(Br)c1C(=O)Nc1ccc(Cl)c(C(=O)NC2CC2)c1 [Ik-248] | 3.04^a)
12 | CCN(C(=O)c1c(C(F)(F)F)c(C(F)(F)C(F)(F)F)nn1C)c1ccc(Cl)c(C(=O)NCC(F)(F)F)c1 [Ik-138] | 3.81^a)
13 | Cn1nc(C(F)(F)C(F)(F)F)c(C(F)(F)F)c1C(=O)Nc1ccc(F)c(C(=O)NC2CC2)c1 [Ik-155] | 3.31^a)
14 | Cc1nc(C(F)(F)C(F)(F)F)ncc1C(=O)Nc1ccc(Cl)c(C(=O)NCC(F)(F)F)c1 [Ib-24] | 3.16^a)
15 | Cn1nc(C(F)(F)C(F)(F)F)c(C(F)(F)F)c1C(=O)Nc1cc(C(=O)NCc2ccccc2)c(Cl)cc1Cl [Ik-150] | 4.23^a)
16 | Cn1nc(-c2cc(C(F)(F)F)cc(C(F)(F)F)c2)c(C(F)(F)F)c1C(=O)Nc1ccc(Cl)c(C(=O)NC2CC2)c1 [Ik-259] | 4.19^a)
17 | Cn1nc(C(F)(F)C(F)(F)F)c(C(F)(F)F)c1C(=O)Nc1cc(F)c(Br)c(C(=O)NCc2ccccc2)c1 [Ik-229] | 4.14^a)
18 | Cn1nc(OCC(F)(F)F)c(Br)c1C(=O)Nc1ccc(Cl)c(C(=O)NC2CC2)c1 [Ik-256] | 2.87^a)
19 | O=C(NCC(F)(F)F)c1cc(NC(=O)c2cnc(C(F)(F)C(F)(F)C(F)(F)F)nc2C(F)(F)F)ccc1Cl [Ib-16] | 3.88^a)
20 | CC(NC(=O)c1cc(NC(=O)c2c(Br)c(C(F)(F)C(F)(F)F)nn2C)ccc1Cl)C1CC1 (stereo not shown) [Ik-12] | 3.84^a)
21 | O=C(NCC=CCl)c1cc(NC(=O)c2nccc(C(F)(F)F)c2Cl)ccc1Cl [Ie-4] | 2.92^a)
22 | O=C(NC1CC1)c1cc(NC(=O)c2[nH]nc(C(F)(F)C(F)(F)F)c2C(F)(F)F)ccc1Cl [Ik-179] | 2.95^a)
23 | Cn1nc(C(F)(F)C(F)(F)F)c(C(F)(F)F)c1C(=O)Nc1ccc(Cl)c(C(=O)NCC(F)F)c1 [Ik-86] | 3.41^a)
24 | Cc1nc(C(F)(F)C(F)(F)F)ncc1C(=O)Nc1ccc(Cl)c(C(=O)NCC=CCl)c1 [Ib-25] | 3.2^a)
25 | CC(C)n1nc(C(F)(F)C(F)(F)F)c(C(F)(F)F)c1C(=O)Nc1ccc(Cl)c(C(=O)NC2CC2)c1 [Ik-218] | 4.02^a)
26 | Cn1nc(C(F)(F)F)c(C(F)(F)F)c1C(=O)Nc1ccc(Cl)c(C(=O)NCC=CCl)c1 [Ik-196] | 3.28^a)
27 | Cn1nc(C(F)(F)OC(F)(F)C(F)(F)OC(F)(F)F)c(I)c1C(=O)Nc1ccc(Cl)c(C(=O)NC2CC2)c1 [Ik-264] | 3.66^a)

Row | SMILES | logP
28 | Cn1nc(C(F)(F)C(F)(F)F)c(C(F)(F)F)c1C(=O)Nc1cc(Cl)c(Br)c(C(=O)NC2CC2)c1 [Ik-213] | 3.81^a)
29 | CN(C(=O)c1c(C(F)(F)F)c(C(F)(F)C(F)(F)F)nn1C)c1ccc(Cl)c(C(=O)NCc2ccccc2)c1 [Ik-134] | 3.94^a)
30 | O=C(NCC(F)(F)F)c1cc(NC(=O)c2ncc(C(F)(F)F)cc2Cl)ccc1Cl [Ii-3] | 2.86^a)
31 | O=C(NCC=CCl)c1cc(NC(=O)c2cnc(C(F)(F)C(F)(F)C(F)(F)F)nc2C(F)(F)F)ccc1Cl [Ib-17] | 3.92^a)
32 | COCN(C(=O)c1c(C(F)(F)F)c(C(F)(F)C(F)(F)F)nn1C)c1ccc(Cl)c(C(=O)NC2CC2)c1 [Ik-135] | 3.51^a)
33 | Cn1nc(C(F)(F)C(F)(F)F)c(C(F)(F)F)c1C(=O)Nc1cc(Cl)cc(C(=O)NC2CC2)c1Cl [Ik-170] | 3.78^a)
34 | O=C(NC1CC1)c1cc(NC(=O)c2[nH]nc(C(F)(F)F)c2C(F)(F)F)ccc1Cl [Ik-197] | 2.55^a)
35 | CNC(=O)c1cc(NC(=O)c2ccc(C(F)(F)F)nc2C)ccc1Cl [Ir-5] | 1.97^a)
36 | Cn1nc(C(F)(F)C(F)(F)F)c(C(F)(F)F)c1C(=O)Nc1ccc(Br)c(C(=O)NC2CC2)c1 [Ik-175] | 3.39^a)
37 | Cn1nc(C(F)(F)F)c(Br)c1C(=O)Nc1ccc(Cl)c(C(=O)NCC=CCl)c1 [Ik-22] | 3.20^a)
38 | O=C(NCC(F)(F)F)c1cc(NC(=O)c2ccc(C(F)(F)F)nc2Cl)ccc1Cl [Ir-9] | 2.82^a)
39 | Cn1nc(OCC(F)(F)F)cc1C(=O)Nc1ccc(Cl)c(C(=O)NCC(F)(F)F)c1 [Ik-246] | 2.92^a)
40 | Cn1nc(C(F)(F)C(F)(F)F)c(C(F)(F)F)c1C(=O)Nc1ccc(Cl)c(C(=O)NCc2ccccc2)c1 [Ik-84] | 3.90^a)
41 | O=C(NC1CC1)c1cc(NC(=O)c2c(C(F)(F)F)c(C(F)(F)C(F)(F)F)nn2-c2ccccc2)ccc1Cl [Ik-176] | 4.00^a)
42 | Cn1nc(C(F)(F)C(F)(F)F)c(C(F)(F)F)c1C(=O)Nc1ccc(Cl)c(C(=O)NS(C)(=O)=O)c1 [Ik-24] | 3.13^a)
43 | Cc1nc(C(F)(F)F)ccc1C(=O)Nc1ccc(Cl)c(C(=O)NC2CC2)c1 [Ir-2] | 2.27^a)
44 | O=C(NCC=CCl)c1cc(NC(=O)c2cnc(C(F)(F)F)nc2C(F)(F)F)ccc1Cl [Ib-5] | 3.19^a)
45 | Cn1nc(C(F)(F)C(F)(F)F)c(C(F)(F)F)c1C(=O)Nc1cc(Cl)c(I)c(C(=O)NCc2ccccc2)c1 [Ik-205] | 4.45^a)
46 | Cn1nc(OCC(F)(F)F)c(F)c1C(=O)Nc1ccc(Cl)c(C(=O)NC2CC2)c1 [Ik-260] | 2.75^a)
47 | Cn1nc(OCC(F)(F)F)c(I)c1C(=O)Nc1ccc(Cl)c(C(=O)NCC(F)(F)F)c1 [Ik-244] | 3.24^a)
48 | Cn1nc(C(F)(F)C(F)(F)F)c(C(F)(F)F)c1C(=O)Nc1cc(C(=O)NC2CC2)c(F)cc1F [Ik-145] | 3.32^a)
49 | Cn1nc(OCC(F)(F)F)c(Cl)c1C(=O)Nc1ccc(Cl)c(C(=O)NC2CC2)c1 [Ik-242] | 2.89^a)
50 | Cn1nc(C(F)(Cl)C(F)(F)F)c(Br)c1C(=O)Nc1ccc(Cl)c(C(=O)NC2CC2)c1 (stereo not shown) [Ik-16] | 3.35^a)
51 | Cn1nc(C(F)(F)C(F)(F)F)c(C(F)(F)F)c1C(=O)Nc1cc(C(=O)NCC(F)(F)F)c(Cl)cn1 [Ik-317] | 3.61^a)
52 | CSc1c(F)cc(NC(=O)c2c(C(F)(F)F)c(C(F)(F)C(F)(F)F)nn2C)cc1C(=O)NCC(F)(F)F [Ik-193] | 3.90^a)
53 | Cn1nc(C(F)(F)C(F)(F)F)c(C(F)(F)F)c1C(=O)Nc1ccc(F)c(C(=O)NCC(F)(F)F)c1 [Ik-156] | 3.66^a)
54 | Cn1nc(C(F)(F)C(F)(F)F)c(C(F)(F)F)c1C(=O)Nc1ccc(Cl)c(C(=O)OCC(=O)NC(N)=O)c1 [Ik-110] | 3.10^a)

Same assay, conditions: HPLC method a), eluent acetonitrile/water with formic acid; read-out: logP

Row | SMILES | chromatographic logP
55 | O=C(O)c1cnc(C(F)(F)C(F)(F)C(F)(F)F)nc1C(F)(F)F [2-(Heptafluoropropyl)-4-(trifluoromethyl)pyrimidine-5-carboxylic acid] | 2.23
56 | Cn1nc(C(F)(F)C(F)(F)C(F)(F)F)c(Br)c1C(=O)O [4-Bromo-1-methyl-3-heptafluoropropyl-1H-pyrazole-5-carboxylic acid] | 2.26

Same assay, conditions: HPLC phase inversion (reversed-phase) C18 column, HPLC method a), eluent acetonitrile/water with formic acid; read-out: logP

Row | chromatographic logP | SMILES
57 | 3.29 | Cn1nc(C(F)(F)C(F)(F)F)c(C(F)(F)F)c1C(=O)Nc1ccc(Br)c(C(=O)N[C@@H]2C[C@@H]2F)n1 [Ik-127, N-{3-Bromo[2-(1R,2S)-2-fluorocycloprop-1-ylcarbamoyl]pyrid-6-yl}-1-methyl-3-(pentafluoroethyl)-4-(trifluoromethyl)-1H-pyrazole-5-carboxamide]
58 | 1.97 | Cc1nc(C(F)(F)C(F)(F)F)ncc1C(=O)O [4-Methyl-2-(pentafluoroethyl)pyrimidine-5-carboxylic acid]
59 | 3.42 | CCOC(=O)c1cnc(C(F)(F)C(F)(F)F)nc1C(F)F [Ethyl 4-(difluoromethyl)-2-(pentafluoroethyl)pyrimidine-5-carboxylate]
60 | 3.19 | Cn1nc(C(F)(F)C(F)(F)F)c(C(F)(F)F)c1C(=O)Nc1cc(C(=O)N[C@@H]2C[C@@H]2F)c(Br)cn1 [Ik-128, 5-Bromo-N-[(1R,2S)-2-fluorocyclopropyl]-2-({[1-methyl-3-(pentafluoroethyl)-4-(trifluoromethyl)-1H-pyrazol-5-yl]carbonyl}amino)isonicotinamide]
61 | 3.17 | Cn1cc(Br)c(C(F)(Cl)C(F)(F)F)n1 (stereo not shown) [4-Bromo-1-methyl-3-(1-chloro-1,2,2,2-tetrafluoroethyl)-1H-pyrazole]
62 | 3.3 | Cc1nc(C(=O)Nc2ccc(Cl)c(C(=O)O)c2)c(C(F)(F)F)c(C(F)(F)C(F)(F)F)n1 [2-chloro-5-({[2-methyl-6-(pentafluoroethyl)-5-(trifluoromethyl)pyrimidin-4-yl]carbonyl}amino)benzoic acid]

Same assay, conditions: HPLC phase inversion (reversed-phase) C18 column, HPLC on C18 phase inversion column, method a); read-out: logP

Row | chromatographic logP | SMILES
63 | 3.29 | Cn1nc(C(F)(F)C(F)(F)F)c(C(F)(F)F)c1C(=O)Nc1ccc(Br)c(C(=O)N[C@@H]2C[C@@H]2F)n1 [Ik-127, N-{3-Bromo[2-(1R,2S)-2-fluorocycloprop-1-ylcarbamoyl]pyrid-6-yl}-1-methyl-3-(pentafluoroethyl)-4-(trifluoromethyl)-1H-pyrazole-5-carboxamide]
64 | 3.19 | Cn1nc(C(F)(F)C(F)(F)F)c(C(F)(F)F)c1C(=O)Nc1cc(C(=O)N[C@@H]2C[C@@H]2F)c(Br)cn1 [Ik-128, 5-Bromo-N-[(1R,2S)-2-fluorocyclopropyl]-2-({[1-methyl-3-(pentafluoroethyl)-4-(trifluoromethyl)-1H-pyrazol-5-yl]carbonyl}amino)isonicotinamide]
